Measurements reported in patent publication US9850283B2, “Macrocyclic inhibitors of the PD-1/PD-L1 and CD80(B7-1)/PD-L1 protein/protein interactions” (BRISTOL-MYERS SQUIBB COMPANY, priority 2013, dated 2017).
Like-named read-outs stand apart in the source and are kept apart here. Positions of bridges follow the written chain, without caps; N, C: chain ends. Non-standard residues stand in square brackets, D forms with d. Residues, ends and D or L forms follow the SMILES beside them. ξ: configuration not given here. *: point of attachment. Ala(benzothiazol-2-yl) = N[C@@H](Cc1nc2ccccc2s1)C(=O)O; d(cisHyp) = O=C(O)[C@H]1C[C@@H](O)CN1; Cyclohexanecarbonyl = O=C(C1CCCCC1)*; Bta = N[C@@H](Cc1csc2ccccc12)C(=O)O; cisHyp = O=C(O)[C@@H]1C[C@H](O)CN1; Hyp = O=C(O)[C@@H]1C[C@@H](O)CN1; NMeF = CN[C@@H](Cc1ccccc1)C(=O)O; dNMeE = CN[C@H](CCC(=O)O)C(=O)O; NMeNle = CCCC[C@H](NC)C(=O)O; NMeM = CN[C@@H](CCSC)C(=O)O; NMeA = CN[C@@H](C)C(=O)O; Dab = NCC[C@H](N)C(=O)O; Dap = NC[C@H](N)C(=O)O; ξC = NC(CS)C(=O)O; Sar = CNCC(=O)O

How the values were obtained:
Human PD-L1/PD-1 = target: T1, Human PD-L1/PD-1 (Homo sapiens, UniProt Q9NZQ7); assay: HTRF PD-1-Ig/PD-L1-His binding assay (human PD-L1); details: cluster symbol; read-out: HTRF IC50 cluster
T1 construct: made in house; host or cells: HEK293T
T1 sequence (Q9NZQ7 with tags, fused parts or gaps): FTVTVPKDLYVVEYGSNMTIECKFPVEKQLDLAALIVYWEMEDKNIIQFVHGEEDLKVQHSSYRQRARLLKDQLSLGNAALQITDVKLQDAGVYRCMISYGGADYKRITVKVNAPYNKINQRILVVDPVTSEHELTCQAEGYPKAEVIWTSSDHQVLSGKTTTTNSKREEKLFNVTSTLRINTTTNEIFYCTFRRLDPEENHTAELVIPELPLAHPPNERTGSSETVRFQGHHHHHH
Procedure, shortened: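 Soluble Fc-fused PD-1 and His-tagged PD-L1 (truncated before the transmembrane region) were combined in dPBS with 0.1% (w/v) BSA and 0.05% (v/v) Tween-20. Binding was read by HTRF using europium cryptate anti-Ig antibody (1 nM final) and APC anti-His antibody (20 nM final).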

[1] = target: T2, LK35.2-hPD-L1 cells / PE-labeled PD-1-Ig (Homo sapiens, UniProt Q9NZQ7); assay: LK35.2-hPD-L1 cell binding high-content screening assay; type: cell-based; details: cluster symbol, read-out: CBA IC50 cluster
T2 construct: expressed in transfected cells; host or cells: LK35.2 mouse B cell line
T2 sequence (Q9NZQ7 19-290): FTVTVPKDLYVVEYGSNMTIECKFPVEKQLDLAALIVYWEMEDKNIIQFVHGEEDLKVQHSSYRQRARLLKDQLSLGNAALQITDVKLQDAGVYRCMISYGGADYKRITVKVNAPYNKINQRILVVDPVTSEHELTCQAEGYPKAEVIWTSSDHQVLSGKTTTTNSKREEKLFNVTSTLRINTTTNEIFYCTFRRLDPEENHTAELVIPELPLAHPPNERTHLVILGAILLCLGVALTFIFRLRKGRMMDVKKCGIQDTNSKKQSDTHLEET
Procedure, shortened: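 Compound effect on PD-1/PD-L1 binding is measured by imaging cell-associated phycoerythrin signal. Human PD-1-Ig (PE on Ig tag, 1 nM final) is applied with compound to a murine B cell line overexpressing human PD-L1 for 1 h at 37 °C in serum-containing RPMI.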

[2] = cell line of CBA not given (LK35.2-hPD-L1 or 293T-hPD-L1)
[3] = cell binding assay, cell line not given

IC50 (Human PD-L1/PD-1) [nM] | IC50 [1, 2] [nM] | IC50 [1, 3] [nM] | Compound
> 30.5 | > 74.3 | – | CCCC[C@H]1C(=O)N(C)[C@@H](CCCC)C(=O)N[C@@H](CCCNC(=N)N)C(=O)N[C@H](C(=O)NCC(N)=O)CSCC(=O)N[C@@H](Cc2ccc(O)cc2)C(=O)N(C)[C@@H](C)C(=O)N[C@@H](CC(N)=O)C(=O)N2CCC[C@H]2C(=O)N[C@@H](Cc2cnc[nH]2)C(=O)N[C@@H](CC(C)C)C(=O)N2CCC[C@H]2C(=O)N[C@@H](Cc2c[nH]c3ccccc23)C(=O)N[C@@H](CO)C(=O)N[C@@H](Cc2nc3ccccc3s2)C(=O)N1C [Example 1129] ({CH2CO}-Y[NMeA]NPHLPWS[Ala(benzothiazol-2-yl)][NMeNle][NMeNle]RCG-NH2; thioether N-14)
> 30.5 | > 74.3 | – | CCCC[C@H]1C(=O)N[C@@H](CCCNC(=N)N)C(=O)N[C@H](C(=O)NCC(N)=O)CSCC(=O)N[C@@H](Cc2ccccc2)C(=O)N(C)[C@@H](C)C(=O)N[C@@H](CC(N)=O)C(=O)N2CCC[C@H]2C(=O)N[C@@H](Cc2cnc[nH]2)C(=O)N[C@@H](CC(C)C)C(=O)N(C)CC(=O)N[C@@H](Cc2c[nH]c3ccccc23)C(=O)N[C@@H](CO)C(=O)N[C@@H](Cc2c[nH]c3ccccc23)C(=O)N[C@@H](CNC(=O)C2CCCCC2)C(=O)N1C [Example 1017] ({CH2CO}-F[NMeA]NPHL[Sar]WSW[Dap](Cyclohexanecarbonyl)[NMeNle]RCG-NH2; thioether N-14)
6.76 to 30.3 | – | 4.78 to 72.9 | CCCC[C@H]1C(=O)N(C)[C@@H](CCSC)C(=O)N[C@@H](CCCNC(=N)N)C(=O)NC(C(=O)NCC(N)=O)CSCC(=O)N[C@@H](Cc2ccc(O)cc2)C(=O)N(C)[C@@H](C)C(=O)N[C@@H](CC(N)=O)C(=O)N2CCC[C@H]2C(=O)N[C@@H](Cc2cnc[nH]2)C(=O)N[C@@H](CO)C(=O)N2C[C@H](O)C[C@H]2C(=O)N[C@@H](Cc2c[nH]c3ccccc23)C(=O)N[C@@H](CO)C(=O)N[C@@H](Cc2c[nH]c3ccccc23)C(=O)N1C (stereo partly shown) [Example 9107] ({CH2CO}-Y[NMeA]NPHS[Hyp]WSW[NMeNle][NMeM]R[ξC]G-NH2; thioether N-14)
6.76 to 30.3 | 4.78 to 72.9 | – | CCCC[C@H]1C(=O)N(C)[C@@H](CCCC)C(=O)N[C@@H](CCCNC(=N)N)C(=O)N[C@H](C(=O)NCC(N)=O)CSCC(=O)N[C@@H](Cc2ccccc2)C(=O)N(C)[C@@H](C)C(=O)N[C@@H](CC(=O)O)C(=O)N2CCC[C@H]2C(=O)N[C@@H](Cc2cnc[nH]2)C(=O)N[C@@H](CC(C)C)C(=O)N(C)CC(=O)N[C@@H](Cc2c[nH]c3ccccc23)C(=O)N[C@@H](CO)C(=O)N[C@@H](Cc2c[nH]c3ccccc23)C(=O)N1C [Example 1092] ({CH2CO}-F[NMeA]DPHL[Sar]WSW[NMeNle][NMeNle]RCG-NH2; thioether N-14)
0.385 to 6.74 | – | 0.158 to 4.71 | CCCC[C@H]1C(=O)N(C)[C@@H](CCCC)C(=O)N[C@@H](CCCNC(=N)N)C(=O)NC(C(=O)N[C@@H](CO)C(N)=O)CSCC(=O)N[C@@H](Cc2ccc(O)cc2)C(=O)N(C)[C@@H](C)C(=O)N[C@@H](CC(N)=O)C(=O)N2CCC[C@H]2C(=O)N[C@@H](CO)C(=O)N[C@@H](CC(C)C)C(=O)N2C[C@H](O)C[C@H]2C(=O)N[C@@H](Cc2c[nH]c3ccccc23)C(=O)N[C@@H](CO)C(=O)N[C@@H](Cc2c[nH]c3ccccc23)C(=O)N1C (stereo partly shown) [Example 9080] ({CH2CO}-Y[NMeA]NPSL[Hyp]WSW[NMeNle][NMeNle]R[ξC]S-NH2; thioether N-14)
6.76 to 30.3 | > 74.3 | – | CCCC[C@H]1C(=O)N(C)[C@@H](CCCC)C(=O)N[C@@H](CN)C(=O)N[C@H](C(=O)NCC(N)=O)CSCC(=O)N[C@@H](Cc2ccc(O)cc2)C(=O)N2CCC[C@H]2C(=O)N[C@@H](CC(=O)O)C(=O)N2CCC[C@H]2C(=O)N[C@@H](CN)C(=O)N[C@@H](CC(=O)O)C(=O)N2C[C@H](O)C[C@H]2C(=O)N[C@@H](Cc2c[nH]c3ccccc23)C(=O)N[C@@H](CCN)C(=O)N[C@@H](Cc2csc3ccccc23)C(=O)N1C [Example 1222] ({CH2CO}-YPDP[Dap]D[Hyp]W[Dab][Bta][NMeNle][NMeNle][Dap]CG-NH2; thioether N-14)
6.76 to 30.3 | 4.78 to 72.9 | – | CCCC[C@H]1C(=O)N(C)[C@@H](CCCC)C(=O)N[C@@H](CCCNC(=N)N)C(=O)N[C@H](C(=O)NCC(N)=O)CSCC(=O)N[C@@H](Cc2ccc(O)cc2)C(=O)N(C)[C@@H](C)C(=O)N[C@@H](CC(N)=O)C(=O)N2CCC[C@H]2C(=O)N[C@@H](C)C(=O)N[C@@H](CC(C)C)C(=O)N2C[C@@H](O)C[C@H]2C(=O)N[C@@H](Cc2c[nH]c3ccccc23)C(=O)N[C@@H](CO)C(=O)N[C@@H](Cc2c[nH]c3ccccc23)C(=O)N1C [Example 1142] ({CH2CO}-Y[NMeA]NPAL[cisHyp]WSW[NMeNle][NMeNle]RCG-NH2; thioether N-14)
0.385 to 6.74 | – | 4.78 to 72.9 | CCCC[C@H]1C(=O)N(C)[C@@H](CCCC)C(=O)N[C@@H](CCCNC(=N)N)C(=O)N[C@H](C(=O)NCC(N)=O)CSCC(=O)N[C@@H](Cc2ccccc2)C(=O)N(C)[C@@H](C)C(=O)N[C@@H](CC(N)=O)C(=O)N2CCC[C@H]2C(=O)N[C@@H](Cc2cnc[nH]2)C(=O)N[C@@H](CC(C)C)C(=O)N(C)CC(=O)N[C@@H](Cc2c[nH]c3ccccc23)C(=O)N[C@@H](CCN)C(=O)N[C@@H](Cc2c[nH]c3ccccc23)C(=O)N1C [Example 5001] ({CH2CO}-F[NMeA]NPHL[Sar]W[Dab]W[NMeNle][NMeNle]RCG-NH2; thioether N-14)
> 30.5 | > 74.3 | – | CCCC[C@H]1C(=O)N(C)[C@@H](CCCC)C(=O)N[C@@H](CCCNC(=N)N)C(=O)N[C@H](C(=O)NCC(N)=O)CSCC(=O)N[C@@H](Cc2ccc(O)cc2)C(=O)N(C)[C@@H](C)C(=O)N[C@@H](CN)C(=O)N2CCC[C@H]2C(=O)N[C@@H](C)C(=O)N[C@@H](CC(C)C)C(=O)N2C[C@@H](O)C[C@H]2C(=O)N[C@@H](Cc2c[nH]c3ccccc23)C(=O)N[C@@H](CO)C(=O)N[C@@H](Cc2c[nH]c3ccccc23)C(=O)N1C [Example 1143] ({CH2CO}-Y[NMeA][Dap]PAL[cisHyp]WSW[NMeNle][NMeNle]RCG-NH2; thioether N-14)
> 30.5 | > 74.3 | – | CCCC[C@H]1C(=O)N(C)CC(=O)N[C@@H](CC(=O)O)C(=O)N[C@@H](C(C)C)C(=O)N(C)[C@@H](Cc2ccccc2)C(=O)N[C@@H](Cc2ccc(O)cc2)C(=O)N(C)CC(=O)N[C@@H](C)C(=O)N[C@@H](Cc2ccc(O)cc2)C(=O)N[C@@H](CC(C)C)C(=O)N[C@@H](C(=O)NCC(N)=O)CSCC(=O)N[C@@H](Cc2ccccc2)C(=O)N(C)[C@@H](Cc2ccccc2)C(=O)N1C [Example 1001] (HELM PEPTIDE1{[O=C(C[*:3])[*:2]].F.[meF].[CCCC[C@@H](C(=O)[*:2])N(C)[*:1]].[Sar].D.V.[meF].Y.[Sar].A.Y.L.[dC].G.[am]}$PEPTIDE1,PEPTIDE1,1:R3-14:R3$$$V2.0)
6.76 to 30.3 | – | 0.158 to 4.71 | CCCC[C@H]1C(=O)N2C[C@H](O)C[C@@H]2C(=O)N[C@@H](CC(N)=O)C(=O)N[C@@H](C(C)C)C(=O)N(C)[C@@H](Cc2ccccc2)C(=O)N[C@@H](Cc2ccc(O)cc2)C(=O)N(C)[C@H](CCC(=O)O)C(=O)N[C@@H](Cc2c[nH]c3ccccc23)C(=O)N[C@@H](Cc2ccc(O)cc2)C(=O)N[C@@H](CCCCN)C(=O)N[C@H](C(=O)NCC(N)=O)CSCC(=O)N[C@@H](Cc2ccccc2)C(=O)N(C)[C@@H](Cc2ccccc2)C(=O)N1C [Example 3594] ({CH2CO}-F[NMeF][NMeNle][d(cisHyp)]NV[NMeF]Y[dNMeE]WYKCG-NH2; thioether N-13)
